Measured values reported in publication PMC6181319, “Thermodynamic and computational analyses reveal the functional roles of the galloyl group of tea catechins in molecular recognition” (PLoS ONE, 2018).
Where two headings read alike, the source gives them in different places. Marks after values point to notes of the source that are not given here. Blank lines part the entries; values can stand above or below the compound they belong to.

Experiments:
[1] = target: T1, human serum albumin (HSA) (Homo sapiens, UniProt P02768); assay: Isothermal titration calorimetry (ITC) of binding of catechins and analogs to HSA; design: purchased Sigma-Aldrich Japan (Tokyo, Japan); settings: for change of binding affinity with addition of 0.2 M NaCl: 0.2 M NaCl versus no NaCl
Description: The binding of the catechins and its analogs to HSA was examined in a VP-ITC instrument (Microcal Northampton, MA). […] The data were analyzed with the Origin software (ver. 7) by means of a single-binding-site model. The thermodynamic parameters were obtained from three replicate titrations, where the dilution heats of the ligands were subtracted.

[2] = target: T1, human serum albumin (HSA); assay: Differential scanning calorimetry (DSC), thermal stability of HSA–ligand complexes; settings: for Tm: DSC, HSA 50 μM, ligand 500 μM, 50 mM sodium phosphate pH 6.8, HSA alone 68.6 ± 0.1; for ΔTm at 500 µM: human, pH 6.8
Description: The thermal stabilities of HSA and the HSA–ligand complexes were determined by differential scanning calorimetry in a VP-DSC autosampler instrument (GE Healthcare). The cell was heated from 303 to 363 K at a rate of 1 K min^−1. The concentrations of HSA and the ligands were 50 and 500 μM, respectively, in a buffer composed of 50 mM sodium phosphate (pH 6.8). The data analysis was carried out with the Origin software (ver. 7) using a two-state model.

[3] = Table 2, methylated catechin derivatives, ITC, 298 K
[4] = Table 2, methylated catechin derivatives, ITC, 298 K, 50 mM sodium phosphate pH 6.8
[5] = Table 2, methylated catechin derivatives, ITC, 298 K, 50 mM sodium phosphate pH 6.8, read-out: KD
[6] = S2 Table, NaCl 0.2 M, read-out: KD
[7] = Table 1, ITC, 298 K, 50 mM sodium phosphate pH 6.8
[8] = Table 1, ITC, 298 K, 50 mM sodium phosphate pH 6.8, HSA 50 μM, single-binding-site model
[9] = Table 1, ITC, 298 K, 50 mM sodium phosphate pH 6.8, read-out: KD

T1 sequence (P02768 25-609): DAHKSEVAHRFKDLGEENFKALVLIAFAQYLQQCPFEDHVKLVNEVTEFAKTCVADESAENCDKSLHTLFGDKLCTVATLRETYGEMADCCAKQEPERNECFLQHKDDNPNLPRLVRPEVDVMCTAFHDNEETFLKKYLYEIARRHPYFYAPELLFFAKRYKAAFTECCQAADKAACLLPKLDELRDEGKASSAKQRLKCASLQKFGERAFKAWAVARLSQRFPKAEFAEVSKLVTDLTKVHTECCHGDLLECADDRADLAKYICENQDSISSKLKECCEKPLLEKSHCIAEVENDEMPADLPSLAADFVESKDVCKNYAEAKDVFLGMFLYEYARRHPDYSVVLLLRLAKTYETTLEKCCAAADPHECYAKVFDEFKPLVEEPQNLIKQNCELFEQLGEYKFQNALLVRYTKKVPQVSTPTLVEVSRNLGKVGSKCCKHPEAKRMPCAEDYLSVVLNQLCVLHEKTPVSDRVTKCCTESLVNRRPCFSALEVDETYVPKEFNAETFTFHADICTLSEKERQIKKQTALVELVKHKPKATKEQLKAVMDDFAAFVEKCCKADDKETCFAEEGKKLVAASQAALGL

ΔG [1, 3]: -7.9 ± 0.1 kcal/mol | ΔH [1, 3]: -9.3 ± 0.4 kcal/mol | −TΔS [1, 3]: 1.4 ± 0.3 kcal/mol | N (number of binding sites) [1, 4]: 0.9 ± 0.1 | Kd [1, 5]: 1.6 ± 0.2 µM
Structure (SMILES): COc1cc([C@H]2Oc3cc(O)cc(O)c3C[C@H]2OC(=O)c2cc(O)c(O)c(O)c2)cc(O)c1O [EGCg-3′-O-Me, (−)-Epigallocatechin-3′-O-methylether gallate]

N ([1]; S3 Table, temperature 288 K): 1.1±0.1 | ΔG ([1]; S3 Table, temperature 288 K): -8.9 ± 0.1 kcal/mol | ΔH ([1]; S3 Table, temperature 288 K): -5.7 ± 1.2 kcal/mol | −TΔS ([1]; S3 Table, temperature 288 K): -3.2 ± 1.2 kcal/mol | Kd ([1]; S3 Table, temperature 288 K, read-out: KD): 0.19 ± 0.04 µM | N ([1]; S3 Table, temperature 293 K): 1.0±0.1 | ΔG ([1]; S3 Table, temperature 293 K): -9.3 ± 0.1 kcal/mol | ΔH ([1]; S3 Table, temperature 293 K): -6.9 ± 1.7 kcal/mol | −TΔS ([1]; S3 Table, temperature 293 K): -2.4 ± 1.7 kcal/mol | Kd ([1]; S3 Table, temperature 293 K, read-out: KD): 0.12 ± 0.02 µM | N ([1]; S3 Table, temperature 298 K): 1.0±0.1 | ΔG ([1]; S3 Table, temperature 298 K): -9.4 ± 0.1 kcal/mol | ΔH ([1]; S3 Table, temperature 298 K): -7.4 ± 0.9 kcal/mol | −TΔS ([1]; S3 Table, temperature 298 K): -1.9 ± 0.9 kcal/mol | Kd ([1]; S3 Table, temperature 298 K, read-out: KD): 0.14 ± 0.02 µM | N ([1]; S3 Table, temperature 303 K): 1.1±0.1 | ΔG ([1]; S3 Table, temperature 303 K): -9.4 ± 0.2 kcal/mol | ΔH ([1]; S3 Table, temperature 303 K): -8.7 ± 0.5 kcal/mol | −TΔS ([1]; S3 Table, temperature 303 K): -0.7 ± 0.4 kcal/mol | Kd ([1]; S3 Table, temperature 303 K, read-out: KD): 0.16 ± 0.04 µM | ΔG [1, 3]: -9.4 ± 0.1 kcal/mol | ΔH [1, 3]: -7.9 ± 0.9 kcal/mol | N (number of binding sites) [1, 4]: 1.0 ± 0.1 | Kd [1, 5]: 0.14 ± 0.02 µM | Kd ([1]; human, human serum albumin (HSA) 50 µM in buffer, pH 6.8, Table 2, methylated catechin derivatives, ITC, 298 K, 50 mM sodium phosphate pH 6.8, read-out: KD): 0.2 µM | ΔCp (change in heat capacity) ([1]; slope of ΔH versus temperature, 288 to 303 K): −195 cal mol^−1 K^−1
Structure (SMILES): COc1cc(C(=O)O[C@@H]2Cc3c(O)cc(O)cc3O[C@@H]2c2cc(O)c(O)c(O)c2)cc(O)c1O [EGCg-3′′-O-Me, (−)-epigallocatechin-3′′-O-methylether gallate]

ΔG [1, 3]: -7.9 ± 0.1 kcal/mol | ΔH [1, 3]: -7.0 ± 0.1 kcal/mol | −TΔS [1, 3]: -0.8 ± 0.1 kcal/mol | N (number of binding sites) [1, 4]: 0.9 ± 0.1 | Kd [1, 5]: 1.7 ± 0.1 µM
Structure (SMILES): COc1c(O)cc([C@H]2Oc3cc(O)cc(O)c3C[C@H]2OC(=O)c2cc(O)c(O)c(O)c2)cc1O [EGCg-4′-O-Me, (−)-epigallocatechin-4′-O-methylether gallate]

ΔG [1, 3]: -8.2 ± 0.1 kcal/mol | ΔH [1, 3]: -9.8 ± 0.1 kcal/mol | −TΔS [1, 3]: 1.6 ± 0.1 kcal/mol | N (number of binding sites) [1, 4]: 1.0 ± 0.1 | Kd [1, 5]: 1 ± 0.1 µM
Structure (SMILES): COc1c(O)cc(C(=O)O[C@@H]2Cc3c(O)cc(O)cc3O[C@@H]2c2cc(O)c(O)c(O)c2)cc1O [EGCg-4′′-O-Me, (−)-epigallocatechin-4′′-O-methylether gallate]

change of binding affinity with addition of 0.2 M NaCl ([1]; ITC): increased | Kd ([1]; S2 Table, NaCl 0 M, read-out: KD): 45.7 µM | Kd [1, 6]: 16.6 µM | ΔH/ΔG ([1]; Table 1, ITC, 298 K): 24% | ΔG [1, 7]: -5.9 ± 0.3 kcal/mol | ΔH [1, 7]: -1.4 ± 0.1 kcal/mol | −TΔS [1, 7]: -4.5 ± 0.4 kcal/mol | N (number of binding sites) [1, 8]: 1.0 ^b | Kd [1, 9]: 46 ± 23 µM
Structure (SMILES): CCOC(=O)c1cc(O)c(O)c(O)c1 [EtGa, Ethyl gallate]

Structure (SMILES): Oc1cc(O)c2c(c1)O[C@@H](c1cc(O)c(O)c(O)c1)[C@H](O)C2 [GC, (−)-gallocatechin]
Kd ([1]; KD, S1 Table, ITC binding affinity listed beside Tm): 52 ± 16 µM | Kd ([1]; KD, Table 1, ITC, 298 K, 50 mM sodium phosphate pH 6.8): 52 ± 16 µM | ΔH/ΔG ([1]; Table 1, ITC, 298 K): 19% | ΔG [1, 7]: -5.8 ± 0.2 kcal/mol | ΔH [1, 7]: -1.1 ± 0.5 kcal/mol | −TΔS [1, 7]: -4.7 ± 0.7 kcal/mol | N (number of binding sites) [1, 8]: 1.0 ^b | Tm [2]: 69.3 ± 0.3 °C | ΔTm at 500 µM [2]: 0.7 °C

Structure (SMILES): O=C(O[C@@H]1Cc2c(O)cc(O)cc2O[C@H]1c1cc(O)c(O)c(O)c1)c1cc(O)c(O)c(O)c1 [GCg, (−)-gallocatechin gallate]
change of binding affinity with addition of 0.2 M NaCl ([1]; ITC): decreased | thermodynamic profile of binding (enthalpy-driven or entropy-driven) ([1]; ITC, 298 K): entropy-driven | Kd ([1]; S1 Table, ITC binding affinity listed beside Tm, read-out: KD): 8.8 ± 3.4 µM | Kd [1, 6]: 18.6 µM | ΔH/ΔG ([1]; Table 1, ITC, 298 K): 43% | ΔG [1, 7]: -6.9 ± 0.2 kcal/mol | ΔH [1, 7]: -3.0 ± 0.1 kcal/mol | −TΔS [1, 7]: -3.9 ± 0.3 kcal/mol | N (number of binding sites) [1, 8]: 1.2 ± 0.2 | Kd [1, 9]: 8.8 ± 3.4 µM | Tm [2]: 73.3 ± 0.2 °C | ΔTm at 500 µM ([2]; human serum albumin (HSA) 50 µM in buffer): 4.6 °C
